Reference: patent publication US9474790B2, “Stable, protracted GLP-1/glucagon receptor co-agonists for medical use” (Novo Nordisk A/S, priority 2013, dated 2016)
Numbered stars: 1 amine (or outer) side, 2 acyl side, 3 side chain; on linkers, the order of the positions; unused ones are H or OH. Bridge positions count the residues as written; N and C are the ends. Square brackets hold non-standard residues; d marks the D form. Side chains are listed from the residue outwards. Peptide text beside a SMILES is read from it. I, II: the chains in the order shown. * marks the point of attachment. C18 diacid = O=C(O)CCCCCCCCCCCCCCCCC(=O)*; γGlu = O=C(O)[C@H](CCC(=O)[*:2])N[*:1]; Ac4c = NC1(C(=O)O)CCC1; AEEA = NCCOCCOCC(=O)O; Aib = CC(C)(N)C(=O)O

Assay: Thioflavin T (ThT) fibrillation assay for physical stability
Type: physicochemical
Settings: 250 μM in 10 mM HEPES buffer, pH 7.5, 37° C., shaking 960 rpm
Method in brief: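 Peptide at 250 μM in 10 mM HEPES pH 7.5 with 1 μM ThT, at 37° C with 960 rpm orbital shaking. Fluorescence (ex 444/em 485 nm) read every 20 min after 10 min pre-incubation; sigmoidal fit gives lag time (t0−2τ) and kapp (1/τ). Recovery is RP-HPLC peptide in the centrifuged, 0.22 μm-filtered supernatant as % of initial.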

Compound | THT assay Lag time (Ex. 76)
CC(C)C[C@H](NC(=O)[C@H](Cc1ccc(O)cc1)NC(=O)[C@H](CCCCN)NC(=O)[C@H](CO)NC(=O)[C@H](CC(C)C)NC(=O)[C@H](CC(=O)O)NC(=O)[C@H](CO)NC(=O)[C@@H](NC(=O)[C@H](Cc1ccccc1)NC(=O)[C@@H](NC(=O)CNC(=O)[C@H](CCC(N)=O)NC(=O)C(C)(C)NC(=O)[C@@H](N)Cc1c[nH]cn1)[C@@H](C)O)[C@@H](C)O)C(=O)N[C@@H](CCC(=O)O)C(=O)N[C@@H](CO)C(=O)N[C@@H](CCCNC(=N)N)C(=O)N[C@@H](CCCNC(=N)N)C(=O)N[C@@H](C)C(=O)N[C@@H](CCCNC(=N)N)C(=O)N[C@@H](CCC(=O)O)C(=O)N[C@@H](Cc1ccccc1)C(=O)N[C@H](C(=O)N[C@@H](CCC(N)=O)C(=O)N[C@@H](Cc1c[nH]c2ccccc12)C(=O)N[C@@H](CC(C)C)C(=O)N[C@@H](CC(C)C)C(=O)N[C@@H](CCCCNC(=O)CC[C@H](NC(=O)COCCOCCNC(=O)COCCOCCNC(=O)CC[C@H](NC(=O)CC[C@H](NC(=O)CCCCCCCCCCCCCCCCC(=O)O)C(=O)O)C(=O)O)C(=O)O)C(=O)N[C@H](C(N)=O)[C@@H](C)O)C(C)C [Example 20, N^ε29-[(4S)-4-carboxy-4-[[2-[2-[2-[[2-[2-[2-[[(4S)-4-carboxy-4-[[(4S)-4-carboxy-4-(17-carboxyheptadecanoylamino)butanoyl]amino]butanoyl]amino]ethoxy]ethoxy]acetyl]amino]ethoxy]ethoxy]acetyl]amino]butanoyl]-[Aib2,Leu10,Glu15,Arg20,Glu21,Leu27,Lys28]-Glucagon amide] (H-H[Aib]QGTFTSDLSKYLESRRAREFVQWLLK([γGlu-AEEA-AEEA-γGlu-γGlu-C18 diacid])T-NH2; N-terminus assumed) | 6 h
CC(C)C[C@H](NC(=O)[C@H](CC(=O)O)NC(=O)[C@H](CC(C)C)NC(=O)[C@H](Cc1ccc(O)cc1)NC(=O)[C@H](CCCCN)NC(=O)[C@H](CO)NC(=O)[C@H](CC(C)C)NC(=O)[C@H](CC(=O)O)NC(=O)[C@H](CO)NC(=O)[C@@H](NC(=O)[C@H](Cc1ccccc1)NC(=O)[C@@H](NC(=O)CNC(=O)[C@H](CCC(N)=O)NC(=O)C(C)(C)NC(=O)[C@@H](N)Cc1c[nH]cn1)[C@@H](C)O)[C@@H](C)O)C(=O)N[C@@H](CCCCN)C(=O)N[C@@H](CCCNC(=N)N)C(=O)N[C@@H](C)C(=O)N[C@@H](CCCNC(=N)N)C(=O)N[C@@H](CCC(=O)O)C(=O)N[C@@H](Cc1ccccc1)C(=O)N[C@H](C(=O)N[C@@H](CCC(N)=O)C(=O)N[C@@H](Cc1c[nH]c2ccccc12)C(=O)N[C@@H](CC(C)C)C(=O)N[C@@H](CC(C)C)C(=O)N[C@@H](CCCCNC(=O)CC[C@H](NC(=O)CC[C@H](NC(=O)COCCOCCNC(=O)COCCOCCNC(=O)CC[C@H](NC(=O)CCCCCCCCCCCCCCCCC(=O)O)C(=O)O)C(=O)O)C(=O)O)C(=O)N[C@H](C(N)=O)[C@@H](C)O)C(C)C [Example 26, N^ε28-[(4S)-4-carboxy-4-[[(4S)-4-carboxy-4-[[2-[2-[2-[[2-[2-[2-[[(4S)-4-carboxy-4-(17-carboxyheptadecanoylamino)butanoyl]amino]ethoxy]ethoxy]-acetyl]amino]ethoxy]ethoxy]acetyl]amino]butanoyl]amino]butanoyl]-[Aib2,Leu10,Leu16,Lys17,Arg20,Glu21, Leu27,Lys28]-Glucagon amide] (H-H[Aib]QGTFTSDLSKYLDLKRAREFVQWLLK([γGlu-γGlu-AEEA-AEEA-γGlu-C18 diacid])T-NH2) | 45 h

The next lines start with the values.

THT assay Lag time (Ex. 76) | Compound
45 h | CC(C)C[C@H](NC(=O)[C@H](Cc1ccc(O)cc1)NC(=O)[C@H](CCCCN)NC(=O)[C@H](CO)NC(=O)[C@H](CC(C)C)NC(=O)[C@H](CC(=O)O)NC(=O)[C@H](CO)NC(=O)[C@@H](NC(=O)[C@H](Cc1ccccc1)NC(=O)[C@@H](NC(=O)CNC(=O)[C@H](CCC(N)=O)NC(=O)C1(NC(=O)[C@@H](N)Cc2c[nH]cn2)CCC1)[C@@H](C)O)[C@@H](C)O)C(=O)N[C@@H](CCC(=O)O)C(=O)N[C@@H](CCC(=O)O)C(=O)N[C@@H](CCCNC(=N)N)C(=O)N[C@@H](CCCNC(=N)N)C(=O)N[C@@H](C)C(=O)N[C@@H](CCCNC(=N)N)C(=O)N[C@@H](CC(=O)O)C(=O)N[C@@H](Cc1ccccc1)C(=O)N[C@H](C(=O)N[C@@H](CCC(N)=O)C(=O)N[C@@H](Cc1c[nH]c2ccccc12)C(=O)N[C@@H](CC(C)C)C(=O)N[C@@H](CC(C)C)C(=O)N[C@@H](CCCCNC(=O)CNC(=O)[C@H](CO)NC(=O)[C@H](CCC(=O)O)NC(=O)CNC(=O)[C@H](CO)NC(=O)CC[C@H](NC(=O)CC[C@H](NC(=O)CCCCCCCCCCCCCCCCC(=O)O)C(=O)O)C(=O)O)C(=O)N[C@H](C(N)=O)[C@@H](C)O)C(C)C [Example 16, N^ε28-[2-[[(2S)-2-[[(2S)-4-carboxy-2-[[2-[[(2S)-2-[[(4S)-4-carboxy-4-[[(4S)-4-carboxy-4-(17-carboxyheptadecanoylamino)butanoyl]amino]butanoyl]amino]-3-hydroxypropanoyl]amino]acetyl]amino]butanoyl]amino]-3-hydroxypropanoyl]amino]acetyl]-[Acb2,Leu10,Glu15,Glu16,Arg20,Leu27,Lys28]-Glucagon amide] (I: H-H[Ac4c]QGTFTSDLSKYLEERRARDFVQWLLKT-NH2 / II: {C18 diacid-γGlu-γGlu}-SGESG; amide I:28-II:C; N-terminus assumed)
6.7 h | CC(C)C[C@H](NC(=O)[C@H](Cc1c[nH]c2ccccc12)NC(=O)[C@H](C)NC(=O)[C@@H](NC(=O)[C@H](Cc1ccccc1)NC(=O)[C@H](CCC(=O)O)NC(=O)[C@H](CCCNC(=N)N)NC(=O)[C@H](C)NC(=O)[C@H](CCCNC(=N)N)NC(=O)[C@H](CCCNC(=N)N)NC(=O)[C@H](CCCCNC(=O)CC[C@H](NC(=O)COCCOCCNC(=O)COCCOCCNC(=O)CC[C@H](NC(=O)CC[C@H](NC(=O)CCCCCCCCCCCCCCCCC(=O)O)C(=O)O)C(=O)O)C(=O)O)NC(=O)[C@H](CC(=O)O)NC(=O)[C@H](CC(C)C)NC(=O)[C@H](Cc1ccc(O)cc1)NC(=O)[C@H](CCCCN)NC(=O)[C@H](CO)NC(=O)[C@H](CC(C)C)NC(=O)[C@H](CC(=O)O)NC(=O)[C@H](CO)NC(=O)[C@@H](NC(=O)[C@H](Cc1ccccc1)NC(=O)[C@@H](NC(=O)CNC(=O)[C@H](CCC(N)=O)NC(=O)C(C)(C)NC(=O)[C@@H](N)Cc1c[nH]cn1)[C@@H](C)O)[C@@H](C)O)C(C)C)C(=O)N[C@@H](CC(C)C)C(=O)N[C@@H](CC(N)=O)C(=O)N[C@H](C(N)=O)[C@@H](C)O [Example 19, N^ε29-[(4S)-4-carboxy-4-[[2-[2-[2-[[2-[2-[2-[[(4S)-4-carboxy-4-[[(4S)-4-carboxy-4-(17-carboxyheptadecanoylamino)butanoyl]amino]butanoyl]amino]ethoxy]ethoxy]acetyl]amino]ethoxy]ethoxy]acetyl]amino]butanoyl]-[Aib2,Leu10,Lys16,Arg20,Glu21,Ala24,Leu27]-Glucagon amide] (H-H[Aib]QGTFTSDLSKYLDK([γGlu-AEEA-AEEA-γGlu-γGlu-C18 diacid])RRAREFVAWLLNT-NH2; N-terminus assumed)
45 h | CC(C)C[C@H](NC(=O)[C@H](Cc1ccc(O)cc1)NC(=O)[C@H](CCCCN)NC(=O)[C@H](CO)NC(=O)[C@H](CC(C)C)NC(=O)[C@H](CC(=O)O)NC(=O)[C@H](CO)NC(=O)[C@@H](NC(=O)[C@H](Cc1ccccc1)NC(=O)[C@@H](NC(=O)CNC(=O)[C@H](CCC(N)=O)NC(=O)C(C)(C)NC(=O)[C@@H](N)Cc1c[nH]cn1)[C@@H](C)O)[C@@H](C)O)C(=O)N[C@@H](CCC(=O)O)C(=O)N[C@@H](CO)C(=O)N[C@@H](CCCCN)C(=O)N[C@@H](CCCNC(=N)N)C(=O)N[C@@H](C)C(=O)N[C@@H](CCCNC(=N)N)C(=O)N[C@@H](CCC(=O)O)C(=O)N[C@@H](Cc1ccccc1)C(=O)N[C@H](C(=O)N[C@@H](CCC(N)=O)C(=O)N[C@@H](Cc1c[nH]c2ccccc12)C(=O)N[C@@H](CC(C)C)C(=O)N[C@@H](CC(C)C)C(=O)N[C@@H](CCCCNC(=O)CNC(=O)[C@H](CO)NC(=O)[C@H](CCC(=O)O)NC(=O)CNC(=O)[C@H](CO)NC(=O)CC[C@H](NC(=O)CC[C@H](NC(=O)CCCCCCCCCCCCCCCCC(=O)O)C(=O)O)C(=O)O)C(=O)N[C@H](C(N)=O)[C@@H](C)O)C(C)C [Example 25, N^ε28-[2-[[(2S)-2-[[(2S)-4-carboxy-2-[[2-[[(2S)-2-[[(4S)-4-carboxy-4-[[(4S)-4-carboxy-4-(17-carboxyheptadecanoylamino)butanoyl]amino]butanoyl]amino]-3-hydroxypropanoyl]amino]acetyl]amino]butanoyl]amino]-3-hydroxypropanoyl]amino]acetyl]-[Aib2,Leu10,Glu15,Lys17,Arg20,Glu21,Leu27,Lys28]-Glucagon amide] (I: H-H[Aib]QGTFTSDLSKYLESKRAREFVQWLLKT-NH2 / II: {C18 diacid-γGlu-γGlu}-SGESG; amide I:28-II:C; N-terminus assumed)
